Ten compounds from PubChem BioAssay (NCI) can be followed below.

Several values for one entry are separate records, joined by “and”; a condition that tells them apart may be missing. Equal values may be shown once.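 Five compound concentrations were applied to cells in 96-well plates for 48 hours; endpoints were derived by simple linear interpolation of the resulting dose-response curve. Abbreviation: GI50, concentration required for 50% inhibition of growth. TGI is the concentration that stops growth completely.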

Some test systems named below: BT-549 breast; HS 578T breast; COLO 205 colon; HCC-2998 colon; CCRF-CEM leukemia; CAKI-1 renal; U251 CNS; MCF7 breast; KM12 colon; TK-10 renal.
What all share (experiment): NCI anticancer screen, dose series, 48 h

As for `Cc1ccccc1-n1ncc(C(=O)c2ccccc2)c1N`, the GI50 with BT-549 breast, in the experiment with HS 578T breast, in the experiment with COLO 205 colon, with HCC-2998 colon, with CCRF-CEM leukemia and in the experiment with CAKI-1 renal was above 25 µM each time. The GI50 in the experiment with U251 CNS, in the experiment on MCF7 breast, with KM12 colon and in the experiment with TK-10 renal was above 25 µM throughout. Moreover, the TGI in the experiment on BT-549 breast, with HS 578T breast, in the experiment with COLO 205 colon, in the experiment on HCC-2998 colon, in the experiment with CCRF-CEM leukemia and in the experiment on CAKI-1 renal was above 25 µM each time. For the same compound, the TGI in the experiment on U251 CNS, in the experiment with MCF7 breast, in the experiment with KM12 colon and in the experiment with TK-10 renal was above 25 µM throughout.
On to `CC(C)(C)C(=O)OCOP(=O)(OCOC(=O)C(C)(C)C)C1CC(O)N(O)C1=O` (stereo unspecified), for which the GI50 in the experiment on BT-549 breast was 2.96 µM; in the experiment on HS 578T breast it was 2.59 µM; with COLO 205 colon, 8.66 µM; with HCC-2998 colon, 4.04 µM; in the experiment on CCRF-CEM leukemia, 0.777 µM; with CAKI-1 renal, 4.87 µM. Further, the GI50 in the experiment with U251 CNS is 3.58 µM; in the experiment with MCF7 breast it was 3.32 µM; in the experiment on KM12 colon, 4.79 µM; in the experiment on TK-10 renal it was 20.2 µM. Moreover, the TGI with BT-549 breast is 8.63 µM; in the experiment with HS 578T breast, 7.85 µM; with COLO 205 colon, above 100 µM; with HCC-2998 colon it was 49 µM; in the experiment on CCRF-CEM leukemia, 14.3 µM; in the experiment with CAKI-1 renal, above 100 µM. The TGI in the experiment with U251 CNS was 44.1 µM; in the experiment with MCF7 breast, above 100 µM; with KM12 colon it was above 100 µM; in the experiment with TK-10 renal it was above 100 µM.
`Clc1ccc2c(c1)N(CCCN1CCCC1)c1ccccc1S2`: the GI50 in the experiment with BT-549 breast was 11.8 µM; in the experiment with HS 578T breast it was 4.92 µM; in the experiment with COLO 205 colon, 2.5 µM; with HCC-2998 colon, 4.41 µM; in the experiment with CCRF-CEM leukemia it was 3.93 µM; in the experiment on CAKI-1 renal, 11 µM. The GI50 in the experiment with U251 CNS was 6.96 µM; in the experiment on MCF7 breast, 3.22 µM; with KM12 colon, 5.14 µM; with TK-10 renal, 13 µM. Also, the TGI with BT-549 breast was determined as 24.4 µM; with HS 578T breast, 30.8 µM; in the experiment with COLO 205 colon, 7.34 µM; in the experiment with HCC-2998 colon, 15.5 µM; with CCRF-CEM leukemia, 14.2 µM; with CAKI-1 renal, 22.9 µM. Further, the TGI was 20.5 µM in the experiment on U251 CNS, 13.6 µM in the experiment with MCF7 breast, 18.7 µM with KM12 colon and 26 µM with TK-10 renal.
`CC1(C)CCC2=C(O1)c1ccccc1C(=O)C2=O`: the GI50 in the experiment on BT-549 breast was 1.51 µM; in the experiment with HCC-2998 colon, 1.76 µM; in the experiment with CCRF-CEM leukemia, 3.3 µM; with CAKI-1 renal it was 1.74 µM; in the experiment on U251 CNS, 1.49 µM; with MCF7 breast it was 1.53 µM. In addition, the values for the GI50 in the experiment with KM12 colon and in the experiment with TK-10 renal were 1.7 µM and 1.83 µM, respectively. Also, the TGI in the experiment with BT-549 breast is 2.92 µM and 1.74 µM; in the experiment on HS 578T breast, 6.32 µM and 0.643 µM; in the experiment on COLO 205 colon, 3.63 µM; in the experiment with HCC-2998 colon it was 3.25 µM; with CCRF-CEM leukemia, above 100 µM; with CAKI-1 renal it was 3.13 µM and 2.47 µM. The TGI in the experiment with U251 CNS is 2.95 µM and 1.13 µM; in the experiment on MCF7 breast, 3.6 µM and 1.05 µM; with KM12 colon it was 3.38 µM and 2.13 µM; in the experiment with TK-10 renal, 3.34 µM and 4.56 µM.
With `COc1cc(-c2nc3ccccc3s2)ccc1NC(=O)COc1ccc(Cl)cc1`, the GI50 is above 100 µM in the experiment on BT-549 breast; 3.73 µM with HS 578T breast; 6.45 µM in the experiment with COLO 205 colon; 18.6 µM with HCC-2998 colon; above 100 µM with CCRF-CEM leukemia; 6.95 µM with CAKI-1 renal. Further, the GI50 in the experiment with U251 CNS is 2.23 µM; in the experiment on MCF7 breast, 5.05 µM; with KM12 colon it was 3.91 µM; with TK-10 renal, 2.68 µM. The TGI with BT-549 breast, with HS 578T breast, with COLO 205 colon, in the experiment with HCC-2998 colon, in the experiment with CCRF-CEM leukemia and in the experiment on CAKI-1 renal was above 100 µM each time. Moreover, the TGI is 6.8 µM with U251 CNS, above 100 µM in the experiment with MCF7 breast, above 100 µM in the experiment on KM12 colon and 7.06 µM in the experiment with TK-10 renal.
For `O=C1C(=O)c2c(nc3ccc(Br)cn23)-c2ccccc21`, the GI50 in the experiment on BT-549 breast is 1.37 µM; in the experiment with HS 578T breast, 0.438 µM; with COLO 205 colon, 1.78 µM; with HCC-2998 colon, 1.93 µM; with CCRF-CEM leukemia it was 1.25 µM; in the experiment on CAKI-1 renal, 1.52 µM. The GI50 in the experiment on U251 CNS was 0.588 µM; with MCF7 breast, 0.385 µM; in the experiment on KM12 colon, 1.55 µM; with TK-10 renal, 2.28 µM. The TGI in the experiment with BT-549 breast is 2.67 µM; in the experiment on HS 578T breast, 2.23 µM; with COLO 205 colon, 3.55 µM; with HCC-2998 colon, 3.51 µM; in the experiment on CCRF-CEM leukemia, 5.18 µM; in the experiment on CAKI-1 renal it was 3.01 µM. Besides, the TGI is 1.87 µM in the experiment on U251 CNS, 1.08 µM in the experiment with MCF7 breast, 3.19 µM in the experiment with KM12 colon and 3.78 µM with TK-10 renal.
As for `C=CC(C1=CC(=O)C(OC)=CC1=O)c1ccccc1` (stereo unspecified), the TGI in the experiment on BT-549 breast stood at 29.9 µM; in the experiment on HS 578T breast it was 69.7 µM; in the experiment with COLO 205 colon it was 36.6 µM; in the experiment with HCC-2998 colon, 30.7 µM; in the experiment with CCRF-CEM leukemia, 6.77 µM; in the experiment with CAKI-1 renal it was 31.7 µM. In addition, the TGI in the experiment on U251 CNS stood at 30 µM; with MCF7 breast, 26.2 µM; with KM12 colon it was 34.6 µM; with TK-10 renal, 32 µM.
As for `COc1ccc(C(=O)COC(=O)[C@H](C[Se][Se]C[C@H](NC(=O)c2ccc(Br)cc2F)C(=O)OCC(=O)c2ccc(OC)cc2)NC(=O)c2ccc(Br)cc2F)cc1`, the GI50 with BT-549 breast was 0.86 µM; in the experiment on HS 578T breast, 0.362 µM; with COLO 205 colon, 2.56 µM; in the experiment on HCC-2998 colon it was 0.617 µM; in the experiment on CCRF-CEM leukemia it was 2.5 µM; in the experiment on CAKI-1 renal, 1 µM. Further, the GI50 is 0.312 µM in the experiment on U251 CNS, 1.52 µM with MCF7 breast, 0.376 µM in the experiment with KM12 colon and 1.23 µM with TK-10 renal. Moreover, the TGI with BT-549 breast came to 2.47 µM; in the experiment with HS 578T breast, 0.966 µM; with COLO 205 colon it was 7.95 µM; in the experiment on HCC-2998 colon, 1.85 µM; in the experiment with CCRF-CEM leukemia it was 11.6 µM; in the experiment on CAKI-1 renal it was 2.97 µM. Also, the TGI is 1.07 µM in the experiment on U251 CNS, 4.1 µM in the experiment with MCF7 breast, 1.55 µM in the experiment on KM12 colon and 3.4 µM with TK-10 renal.
Turning to `c1cc2[nH]ncc2cc1-c1nc2ccc3[nH]ncc3c2c2c1CCCC2`, the GI50 was 1 µM in the experiment with BT-549 breast; 1.71 µM in the experiment with HS 578T breast; 1.36 µM with COLO 205 colon; 1.98 µM in the experiment with HCC-2998 colon; 0.836 µM in the experiment on CCRF-CEM leukemia; 0.434 µM in the experiment with CAKI-1 renal. Also, the GI50 with U251 CNS is 2.66 µM; in the experiment with MCF7 breast, 0.736 µM; in the experiment with KM12 colon, 0.563 µM; in the experiment on TK-10 renal, 0.913 µM. Further, the TGI with BT-549 breast is 3.78 µM; in the experiment on HS 578T breast, 13.7 µM; in the experiment on COLO 205 colon it was 8.36 µM; in the experiment with HCC-2998 colon, 9.79 µM; with CCRF-CEM leukemia it was above 25.3 µM; with CAKI-1 renal it was 5.62 µM. For the same compound, the TGI with U251 CNS was found to be 15.5 µM; with MCF7 breast, 11.2 µM; in the experiment with KM12 colon, 11.5 µM; in the experiment on TK-10 renal, 21.8 µM.
`CN(C)CCNC(=O)C(C)(C)Oc1ccc(C(=O)c2ccc(Cl)cc2)cc1Cl`: the TGI in the experiment on BT-549 breast was 23.9 µM; with HS 578T breast, 23 µM; in the experiment with COLO 205 colon it was 3.7 µM; with HCC-2998 colon, 16.7 µM; in the experiment on CCRF-CEM leukemia, above 77.3 µM; in the experiment with CAKI-1 renal, 26.2 µM. In addition, the TGI amounted to 20 µM with U251 CNS, 24.3 µM in the experiment on MCF7 breast, 23 µM in the experiment on KM12 colon and 23.7 µM in the experiment on TK-10 renal. Moreover, the GI50 is 4.41 µM in the experiment with COLO 205 colon, 5.31 µM in the experiment on CCRF-CEM leukemia and 3.8 µM with MCF7 breast.
